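Growth conditions: 96-well plates. Treatment: test compound, 48 hours, 5 concentrations. Analysis: linear interpolation between bracketing concentrations; unreached endpoints set to highest concentration. TGI: concentration producing complete growth inhibition.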
Tests used:
Assay in all cases: NCI-60 cell line screen, 48 h
SN12C renal = test system: SN12C renal
OVCAR-8 ovarian = test system: OVCAR-8 ovarian
HOP-62 NSCLC = test system: HOP-62 NSCLC
SK-MEL-2 melanoma = test system: SK-MEL-2 melanoma
NCI-H460 lung = test system: NCI-H460 lung
OVCAR-5 ovarian = test system: OVCAR-5 ovarian
CAKI-1 renal = test system: CAKI-1 renal
SK-OV-3 ovarian = test system: SK-OV-3 ovarian
RXF 393 renal = test system: RXF 393 renal
HS 578T breast = test system: HS 578T breast

Compound	TGI (SN12C renal)	TGI (OVCAR-8 ovarian)	TGI (HOP-62 NSCLC)	TGI (SK-MEL-2 melanoma)	TGI (NCI-H460 lung)	TGI (OVCAR-5 ovarian)	TGI (CAKI-1 renal)	TGI (SK-OV-3 ovarian)	TGI (RXF 393 renal)	TGI (HS 578T breast)
CN(CCN)[C@H](CSSC[C@@H](c1ccccc1O)N(C)CCN)c1ccccc1O	23.2 µM	47.6 µM	28.6 µM	38.9 µM	24.4 µM	28.6 µM	25.8 µM	25 µM	43.7 µM	49.9 µM
O=C(NNC(=O)c1ccco1)c1ccco1	> 100 µM	> 100 µM	> 100 µM	> 100 µM	> 100 µM	> 100 µM	> 100 µM	> 100 µM	> 100 µM	> 100 µM
NC(CCC(=O)c1ccccn1)C(=O)O (stereo not given)	> 100 µM	> 100 µM	> 100 µM	> 100 µM	> 100 µM	> 100 µM	> 100 µM	> 100 µM	> 100 µM	> 100 µM
CC(=O)c1csc2c1C(=O)c1ccccc1C2=O	5.86 µM	7.11 µM	4.36 µM	10.6 µM	5 µM	5.45 µM	18.2 µM	> 100 µM	26.7 µM	7.11 µM
CCN(CC)c1c(C(C)(C)C)c(=O)n2ccsc2c1OC(C)=O	32.6 µM	29.1 µM	26.1 µM	31 µM	31.3 µM	29.7 µM	33.1 µM	36 µM	30.7 µM	42.8 µM
CSc1cc(Cl)c(C)cc1S(=O)(=O)NC(=O)NNc1ccc(C)cc1	> 100 µM	> 100 µM	> 100 µM	> 100 µM	> 100 µM	> 100 µM	> 100 µM	> 100 µM	> 100 µM	> 100 µM
COc1cc(/C=C(\C)[N+](=O)[O-])cc(OC)c1	31 µM	29.7 µM	33.7 µM	34.9 µM	39.5 µM	36.1 µM	27.8 µM	> 100 µM	13.1 µM	68.6 µM
O=C1c2cc3c(cc2NC(c2ccccc2F)C1O)OCO3 (stereo not given)	> 66.9 µM	71.9 µM	> 66.1 µM	> 100 µM	> 100 µM	> 75.9 µM	> 77.8 µM	51.1 µM	> 64.9 µM	48.2 µM
O=C(/C=C/c1ccc(OCc2ccccc2)cc1)NCc1ccc(C(=O)NCCc2ccccc2)cc1	> 100 µM	> 100 µM	> 100 µM	> 100 µM	> 100 µM	> 100 µM	> 100 µM	> 100 µM	> 100 µM	> 100 µM
CCOC(=O)N1c2ccccc2C(C)=CC(C)C1C (stereo not given)	> 100 µM	44.1 µM	> 100 µM	> 100 µM	> 100 µM	> 100 µM	74.3 µM	> 100 µM	51 µM	82.2 µM
Cc1ccc(C2=CC(=O)/C(=C\C(=O)c3ccc(Br)cc3)O2)c(C)c1	> 21.8 µM	19 µM	> 66.7 µM	> 100 µM	69.2 µM	56.7 µM	9.79 µM	29 µM	14.1 µM	61.8 µM
CCOC(=O)[C@@]12C[C@](/C=C/OC)(O[Si](C)(C)C)[C@@]13c1cc(OC)c(OC)cc1CCN3C(=O)C2=O	> 100 µM	> 100 µM	> 100 µM	> 100 µM	> 100 µM	> 100 µM	> 100 µM	> 100 µM	> 100 µM	> 100 µM
COC(=O)[C@@H]1c2c(oc3cc(CO)cc(O)c3c2=O)C=C[C@H]1O	23.6 µM	21.7 µM	40 µM	28.9 µM	34 µM	22.8 µM	22.4 µM	35.4 µM	10.1 µM	55.8 µM
Cc1nc2ccc(NCCN(C)C)c3c(=O)c4ccccc4n1c23	40.1 µM	10.1 µM	19.1 µM	18.8 µM	10.8 µM	21 µM	13.8 µM	36.7 µM	22.9 µM	9.15 µM
Cc1cccc2c(=O)c3c(O)cc(O)cc3n(C)c12	> 100 µM	> 100 µM	> 100 µM	> 100 µM	> 100 µM	> 100 µM	> 100 µM	> 100 µM	> 100 µM	> 100 µM
O=c1cc(NNc2cccc3ccccc23)[nH]c(=O)[nH]1	29.9 µM	36.8 µM	30.9 µM	28.4 µM	43.5 µM	31.1 µM	28.5 µM	88.6 µM	31.9 µM	68.7 µM
CC(=O)OCC1OC(OCCCOP(=O)(OCCC#N)OCC2OC(n3cnc4c(N)ncnc43)C(OC(=O)c3ccccc3)C2OC(=O)c2ccccc2)C(OC(C)=O)C(OC(C)=O)C1OC(C)=O (stereo not given)	> 100 µM	> 100 µM	> 100 µM	> 100 µM	> 100 µM	> 100 µM	> 100 µM	> 100 µM	> 100 µM	> 100 µM

Reference: PubChem BioAssay (NCI)
